Data reported in patent US6562335B1, “NK-1 receptor antagonists for prevention of neurogenic inflammation in gene therapy” (Pfizer, Inc., priority 1995, dated 2003).

Target: T1, substance P (NK-1) receptor (Rattus norvegicus, UniProt P14600)
T1 construct: from tissue; host or cells: living Fischer F344 rats; read-out in trachea and main stem bronchi
Experiment: Capsaicin-induced Evans blue extravasation in airways of rats inoculated endotracheally with Ad5CMVLacZ
Format: in vivo
Details: Fischer F344 rats inoculated with Ad5CMVLacZ, 5 days after inoculation; pretreatment 4 mg/kg i.v., n=5; p>0.05 vs vector without pretreatment
Experimental: Pathogen-free Fischer F344 male rats (220-287 grams in weight, 12-14 weeks of age), under sodium pentobarotal anesthesia, received a localized endotracheal inoculation with 100 μL cf phosphate-buffered saline (PBS) containing 3×10^12 particles/mL of Ad5CMVLacZ, an adenovirus type 5 vector defective in the E1 and E3 regions of the viral genome and containing the LacZ transgene under the control of the CMV (cytomegalo virus) immediate early promoter. A control group of rats was inoculated with sterile PBS.
Five minutes after pretreatment, Evans blue dye (30 mg/kg i.v.) was injected into all the rats to measure the increase in vascular permeability associated with the neurogenic inflammation. Capsaicin (75 mg/kg i.v. over 2 min) was injected immediately after Evans blue to stimulate the sensory nerves in the airway mucosa. Five minutes after capsaicin, the rats were perfused through the heart with 100 mL of PBS. The trachea and main stem bronchi were removed and incubated in formamide (18 hours at 50° C.) to extract the extravasated tracer. The magnitude of the Evans blue extravasation was determined by spectrophotometric measurements of the optical density of formamide extracts.

T1 sequence (P14600 whole entry): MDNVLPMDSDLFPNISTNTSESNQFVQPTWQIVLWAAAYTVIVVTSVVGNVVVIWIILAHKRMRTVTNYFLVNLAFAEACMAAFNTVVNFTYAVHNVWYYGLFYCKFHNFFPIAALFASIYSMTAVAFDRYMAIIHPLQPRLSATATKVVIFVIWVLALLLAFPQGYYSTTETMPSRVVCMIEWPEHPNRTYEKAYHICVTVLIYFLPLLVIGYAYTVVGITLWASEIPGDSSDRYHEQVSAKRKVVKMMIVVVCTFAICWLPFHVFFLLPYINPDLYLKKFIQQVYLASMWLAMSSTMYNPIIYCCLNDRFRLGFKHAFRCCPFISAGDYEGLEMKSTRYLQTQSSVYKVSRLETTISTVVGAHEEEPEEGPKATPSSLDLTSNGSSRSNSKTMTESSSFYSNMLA

COc1ccccc1CN[C@@H]1CCCN[C@@H]1c1ccccc1 [compound B, (2R,3R)-2-phenyl-3-[(2-methoxyphenyl)methylamino]piperidine]
extravasation of Evans blue produced by capsaicin (trachea and main stem bronchi), mean ±SEM: 88.3 ± 5.8 ng/mg
